The values that follow come from article PMC3340383, “Synthesis and Evaluation of a Series of 2-Substituted-5-Thiopropylpiperazine (Piperidine)-1,3,4-Oxadiazoles Derivatives as Atypical Antipsychotics” (PLoS ONE, 2012).

Bounds are passed on as bounds.

One data set deals with catalepsy in mice. Description: Catalepsy test (horizontal bar). The conditions noted are these: po.
In data set [1] the target is T1, serotonin 5-HT2A receptor (Rattus norvegicus, UniProt P14842).
T1 construct: Rat cerebral cortex was homogenized in 20 volumes of ice-cold Tris-HCl buffer; from tissue; host or cells: rat brain (cerebral) cortex
The experiment in a line: 5-HT2A binding assay ([3H]ketanserin, rat brain cortex). The following applies: [3H]ketanserin, rat brain cortex; mean of three experiments; >10000 marked b: Ki not calculated, inhibition at 10 µM too low; read-out: Ki±SEM, 5HT2A. The procedure: (§1) All the new compounds were dissolved in 5% DMSO. The following specific radioligands and tissue sources were used: (a) serotonin 5-HT1A receptor, [^3H]8-OH-DPAT, rat brain cortex; (b) serotonin 5-HT2A receptor, [^3H]ketanserin, rat brain cortex; (c) serotonin 5-HT2C receptor, [^3H]mesulergine, rat brain cortex; (d) dopamine D2 receptor, [^3H]spiperone, rat striatum; (e) dopamine D3 receptor, [^3H]spiperone, rat olfactory tubercle (f) histamine H1 receptor, [^3H] pyrilamine, guinea pig cerebellum.
Total binding was determined in the absence of no-specific binding and compounds. Specific binding was determined in the presence of compounds. Non-specific binding was determined as the difference between total and specific binding.
Percentage of inhibition (%) = (total binding − specific binding)×100%/(total binding − nonspecific binding).
Ki values were calculated based on the Cheng and Prussoff equation: Ki = IC50/(1+C/Kd) where C represents the concentration of the hot ligand used and Kd its receptor dissociation constant were calculated for each labeled ligand. Mean Ki values and SEM were reported for at least three independent experiments.
Rat cerebral cortex was homogenized in 20 volumes of ice-cold Tris-HCl buffer (50 mM, pH 7.7) using an ULTRA TURAX homogeniser, and centrifuged at 32000 g for 20 min. The resulting pellet was resuspended in the same quantity of the buffer centrifuged for 20 min. The final pellet was resuspended in 50 volumes of the Tris-HCl buffer.
Total binding each assay tube was added 900 µL of the tissue suspension, 50 µL of 0.6 nM [^3H]ketanserin (60.0 Ci/mmol, Perkin Elmer Life Sciences, Boston, MA, USA), 50 µL Tris-HCl buffer.
Non-specific binding each assay tube was added 900 µL of the tissue suspension, 50 µL of 0.6 nM [^3H]ketanserin, 50 µL of 10 µM methisergide.
Specific binding each assay tube was added 900 µL of the tissue suspension, 50 µL of 0.6 nM [^3H]ketanserin, […] of new compounds or reference drug.
(§2) The incubation was followed by a rapid vacuum filtration through Whatman GF/B glass filters, and the filtrates were washed twice with 5 mL cold buffer and transferred to scintillation vials. Scintillation fluid (3.0 mL) was added and the radioactivity bound was measured using a Beckman LS 6500 liquid scintillation counter.

In data set [2] the target is T2, serotonin 5-HT2C receptor (Rattus norvegicus, UniProt P08909).
T2 construct: Rat cerebral cortex was homogenized in 20 volumes of ice-cold Tris-HCl buffer; from tissue; host or cells: rat brain (cerebral) cortex
T2 sequence (P08909 33-460): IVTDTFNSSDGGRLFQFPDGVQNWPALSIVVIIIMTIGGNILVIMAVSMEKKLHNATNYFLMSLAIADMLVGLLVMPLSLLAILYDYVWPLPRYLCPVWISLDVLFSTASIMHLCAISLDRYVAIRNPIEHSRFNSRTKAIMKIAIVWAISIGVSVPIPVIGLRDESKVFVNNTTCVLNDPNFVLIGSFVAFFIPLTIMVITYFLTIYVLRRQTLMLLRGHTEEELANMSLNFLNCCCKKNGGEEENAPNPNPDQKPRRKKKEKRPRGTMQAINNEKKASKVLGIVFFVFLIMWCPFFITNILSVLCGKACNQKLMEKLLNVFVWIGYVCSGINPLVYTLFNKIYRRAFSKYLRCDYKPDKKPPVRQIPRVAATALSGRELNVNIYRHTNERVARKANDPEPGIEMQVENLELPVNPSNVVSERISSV
The experiment in a line: 5-HT2C binding assay ([3H]mesulergine, rat brain cortex). The following applies: mean of three experiments, read-out: Ki±SEM, 5HT2C. The procedure: as §1
Total binding was determined in the absence of no-specific binding and compounds. Specific binding was determined in the presence of compounds. Non-specific binding was determined as the difference between total and specific binding. […]
Ki values were calculated based on the Cheng and Prussoff equation: Ki = IC50/(1+C/Kd) where C represents the concentration of the hot ligand used and Kd its receptor dissociation constant were calculated for each labeled ligand. […]
The resulting pellet was resuspended in the same quantity of the buffer centrifuged for 20 min. […]
as §2

Data set [3] is described as follows: Pharmacokinetics study in rat. The data set is classed as in vivo. The following applies: rats. The procedure: The HPLC conditions were as follows: column, Shim-pack ODS 5.0 µm×150 mm×2.0 mm I.D (SHIMADZU, Japanese); mobile phase, 0.0167% HCOOH (TEDIA Company, USA)/acetonitrile (Merck Company, Germany)50/50; flow rate, 0.2 mL/min; column temperature, 40°C.
For routine compound 22 screening rats (n = 6/group) were dosed via the lateral tail vein at the indicated dose for intravenous administration (5 mg/kg, 100% saline) or via oral gavage (20 mg/kg, suspension in 0.5% methylcellulose). At 30 min, 1 h, 2 h, 3 h, 4 h, 5 h, 6 h, 7 h and 24 h after administration, serial blood samples were collected from the lateral tail vein into heparinized collection tubes (approximately 0.25 mL). The plasma was separated by centrifugation, and the sample was prepared for analysis HPLC/MS by protein precipitation with acetonitrile. The plasma samples were analyzed for drug and internal standard via HPLC-MS/MS protocol.

T1 sequence (P14842 whole entry): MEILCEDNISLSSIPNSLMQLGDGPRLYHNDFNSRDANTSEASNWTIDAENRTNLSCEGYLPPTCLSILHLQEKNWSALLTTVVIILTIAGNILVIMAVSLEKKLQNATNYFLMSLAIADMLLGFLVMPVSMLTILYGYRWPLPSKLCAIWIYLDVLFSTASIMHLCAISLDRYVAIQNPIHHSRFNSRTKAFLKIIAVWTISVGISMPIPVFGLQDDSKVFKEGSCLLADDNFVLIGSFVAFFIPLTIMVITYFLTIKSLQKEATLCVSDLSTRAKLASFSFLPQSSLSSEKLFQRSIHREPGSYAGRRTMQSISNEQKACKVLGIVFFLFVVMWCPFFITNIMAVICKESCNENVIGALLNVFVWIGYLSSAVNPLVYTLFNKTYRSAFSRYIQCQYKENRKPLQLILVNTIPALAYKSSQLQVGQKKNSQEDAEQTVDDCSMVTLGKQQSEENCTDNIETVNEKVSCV

On to `Fc1ccc2c(C3CCN(CCCSc4nnc(-c5cccc6ccccc56)o4)CC3)noc2c1` [Compound 22, 2-(3-(4-(6-fluorobenzo[d]isoxazol-3-yl)piperidin-1-yl)propylthio)-5-(naphthalen-1-yl)-1,3,4-oxadiazole], for which the “CAT (catalepsy) ED50 (C)” value with catalepsy in mice is given as over 300 mg/kg. In data set [1], the Ki (as a rule, the dissociation constant of the complex between target and ligand, obtained from inhibition or displacement) was 1.1 ± 0.1 nM. Also, the Ki in data set [2] was 861 ± 86.2 nM. For the same molecule, in data set [3] (i.v. 5 mg/kg, plasma, n = 6), the AUC0-inf was 6239.0 ng·h/mL and the t1/2 was 9.3 h. For the same molecule, the “F (bioavailability)” value in data set [3] (oral 20 mg/kg vs i.v. 5 mg/kg) was determined as 54.5%. In data set [3] (oral 20 mg/kg, plasma, n = 6), the AUC0-inf was determined as 13602.7 ng·h/mL; the Cmax (usually the maximum level reached in the sampled fluid or tissue) is given as 723.6 ng/mL; the Tmax (as a rule, the time from dosing to the highest level) is given as 5 h; the t1/2 is recorded as 8.6 h.
